{"source": "paper PMC10364322", "about": "“Evaluation of chronic drug-induced electrophysiological and cytotoxic effects using human-induced pluripotent stem cell-derived cardiomyocytes (hiPSC-CMs)” (Frontiers in Pharmacology, 2023)", "system": "hiPSC-CMs (iCell-Cardiomyocytes^2)", "procedure,_shortened": "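Monolayers of hiPSC-CMs on fibronectin-coated MEA plates, 50 K/well, kept at 37°C, 5% CO2; compounds added in 0.1% final DMSO after 5-min baseline. Field potential and impedance parameters expressed as mean ± SD percent change from baseline; arrhythmic events noted; cytotoxicity fluorescence normalized to DMSO, Kruskal-Wallis.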", "note": "Read-outs that look alike come from different tables or passages of the source.", "data": [{"smiles": "CCN(CC)CCNC(=O)c1c(C)[nH]c(/C=C2\\C(=O)Nc3ccc(F)cc32)c1C", "note": "[Sunitinib]", "values": [{"measurement": "BR (beating rate), % change from baseline", "setting": "0.03 µM, 2h", "value": "0±2", "unit": "%"}, {"measurement": "FPD (field-potential duration), % change from baseline", "setting": "0.03 µM, 2h", "value": "5.5±1.5", "unit": "%"}, {"measurement": "FPDc (field-potential duration corrected by beat-rate), % change from baseline", "setting": "0.03 µM, 2h", "value": "5.3±1.7", "unit": "%"}, {"measurement": "BR (beating rate), % change from baseline", "setting": "0.03 µM, 24h", "value": "-2±3", "unit": "%"}, {"measurement": "FPD (field-potential duration), % change from baseline", "setting": "0.03 µM, 24h", "value": "11±4.2", "unit": "%"}, {"measurement": "FPDc (field-potential duration corrected by beat-rate), % change from baseline", "setting": "0.03 µM, 24h", "value": "10.1±3.1", "unit": "%"}, {"measurement": "BR (beating rate), % change from baseline", "setting": "0.03 µM, 48h", "value": "-13±2", "unit": "%"}, {"measurement": "FPD (field-potential duration), % change from baseline", "setting": "0.03 µM, 48h", "value": "20.5±2.7", "unit": "%"}, {"measurement": "FPDc (field-potential duration corrected by beat-rate), % change from baseline", "setting": "0.03 µM, 48h", "value": "14.9±1.9", "unit": "%"}, {"measurement": "BR (beating rate), % change from baseline", "setting": "0.03 µM, 72h", "value": "-10±2", "unit": "%"}, {"measurement": "FPD (field-potential duration), % change from baseline", "setting": "0.03 µM, 72h", "value": "19.2±2", "unit": "%"}, {"measurement": "FPDc (field-potential duration corrected by beat-rate), % change from baseline", "setting": "0.03 µM, 72h", "value": "15±1.8", "unit": "%"}, {"measurement": "BR (beating rate), % change from baseline", "setting": "0.03 µM, 96h", "value": "-18±1", "unit": "%"}, {"measurement": "FPD (field-potential duration), % change from baseline", "setting": "0.03 µM, 96h", "value": "27.4±1.8", "unit": "%"}, {"measurement": "FPDc (field-potential duration corrected by beat-rate), % change from baseline", "setting": "0.03 µM, 96h", "value": "19.3±1.7", "unit": "%"}, {"measurement": "BR (beating rate), % change from baseline", "setting": "0.1 µM, 2h", "value": "-5±1", "unit": "%"}, {"measurement": "FPD (field-potential duration), % change from baseline", "setting": "0.1 µM, 2h", "value": "12.2±1.2", "unit": "%"}, {"measurement": "FPDc (field-potential duration corrected by beat-rate), % change from baseline", "setting": "0.1 µM, 2h", "value": "10.3±1", "unit": "%"}, {"measurement": "BR (beating rate), % change from baseline", "setting": "0.1 µM, 24h", "value": "-8±4", "unit": "%"}, {"measurement": "FPD (field-potential duration), % change from baseline", "setting": "0.1 µM, 24h", "value": "25.6±6.7", "unit": "%"}, {"measurement": "FPDc (field-potential duration corrected by beat-rate), % change from baseline", "setting": "0.1 µM, 24h", "value": "21.9±5", "unit": "%"}, {"measurement": "BR (beating rate), % change from baseline", "setting": "0.1 µM, 48h", "value": "-19±2", "unit": "%"}, {"measurement": "FPD (field-potential duration), % change from baseline", "setting": "0.1 µM, 48h", "value": "35.8±4.6", "unit": "%"}, {"measurement": "FPDc (field-potential duration corrected by beat-rate), % change from baseline", "setting": "0.1 µM, 48h", "value": "26.3±3.6", "unit": "%"}, {"measurement": "BR (beating rate), % change from baseline", "setting": "0.1 µM, 72h", "value": "-17±2", "unit": "%"}, {"measurement": "FPD (field-potential duration), % change from baseline", "setting": "0.1 µM, 72h", "value": "36.3±3.3", "unit": "%"}, {"measurement": "FPDc (field-potential duration corrected by beat-rate), % change from baseline", "setting": "0.1 µM, 72h", "value": "28.2±2.6", "unit": "%"}, {"measurement": "BR (beating rate), % change from baseline", "setting": "0.1 µM, 96h", "value": "-24±1", "unit": "%"}, {"measurement": "FPD (field-potential duration), % change from baseline", "setting": "0.1 µM, 96h", "value": "49±7.7", "unit": "%"}, {"measurement": "FPDc (field-potential duration corrected by beat-rate), % change from baseline", "setting": "0.1 µM, 96h", "value": "36.1±6.4", "unit": "%"}, {"measurement": "time point from which EAD-like events occurred", "setting": "0.3 µM", "value": 24, "unit": "h"}, {"measurement": "BR (beating rate), % change from baseline", "setting": "0.3 µM, 2h", "value": "-15±2", "unit": "%"}, {"measurement": "FPD (field-potential duration), % change from baseline", "setting": "0.3 µM, 2h", "value": "32.5±1.7", "unit": "%"}, {"measurement": "FPDc (field-potential duration corrected by beat-rate), % change from baseline", "setting": "0.3 µM, 2h", "value": "25.4±1.4", "unit": "%"}, {"measurement": "BR (beating rate), % change from baseline", "setting": "0.3 µM, 24h", "value": "-29±5", "unit": "%"}, {"measurement": "FPD (field-potential duration), % change from baseline", "setting": "0.3 µM, 24h", "value": "103.1±24.2", "unit": "%"}, {"measurement": "FPDc (field-potential duration corrected by beat-rate), % change from baseline", "setting": "0.3 µM, 24h", "value": "80.7±18.4", "unit": "%"}, {"measurement": "BR (beating rate), % change from baseline", "setting": "0.3 µM, 48h", "value": "-39±4", "unit": "%"}, {"measurement": "FPD (field-potential duration), % change from baseline", "setting": "0.3 µM, 48h", "value": "120.5±24.7", "unit": "%"}, {"measurement": "FPDc (field-potential duration corrected by beat-rate), % change from baseline", "setting": "0.3 µM, 48h", "value": "87.2±17.5", "unit": "%"}, {"measurement": "BR (beating rate), % change from baseline", "setting": "0.3 µM, 72h", "value": "-38±1", "unit": "%"}, {"measurement": "FPD (field-potential duration), % change from baseline", "setting": "0.3 µM, 72h", "value": "135.9±4.7", "unit": "%"}, {"measurement": "FPDc (field-potential duration corrected by beat-rate), % change from baseline", "setting": "0.3 µM, 72h", "value": "101±3.5", "unit": "%"}, {"measurement": "BR (beating rate), % change from baseline", "setting": "0.3 µM, 96h", "value": "-44±2", "unit": "%"}, {"measurement": "FPD (field-potential duration), % change from baseline", "setting": "0.3 µM, 96h", "value": "152.4±12.3", "unit": "%"}, {"measurement": "FPDc (field-potential duration corrected by beat-rate), % change from baseline", "setting": "0.3 µM, 96h", "value": "108.1±8", "unit": "%"}, {"measurement": "BR (beating rate), % change from baseline", "setting": "1 µM, 2h", "value": "-49±4", "unit": "%"}, {"measurement": "FPD (field-potential duration), % change from baseline", "setting": "1 µM, 2h", "value": "182.8±8.5", "unit": "%"}, {"measurement": "FPDc (field-potential duration corrected by beat-rate), % change from baseline", "setting": "1 µM, 2h", "value": "128.9±4.9", "unit": "%"}, {"measurement": "BR (beating rate), % change from baseline", "setting": "1 µM, 24h", "value": "-67±3", "unit": "%"}, {"measurement": "BR (beating rate), % change from baseline", "setting": "1 µM, 48h", "value": "-68±4", "unit": "%"}, {"measurement": "BR (beating rate), % change from baseline", "setting": "1 µM, 72h", "value": "-70±0", "unit": "%"}]}]}
